According to patent US10351519B2, “Sulfamate derivative compounds, processes for preparing them and their uses” (BIO-PHARM SOLUTIONS CO., LTD., priority 2016, dated 2019):

Key:
Assay type in all cases: in vivo
Sprague-Dawley rats [1] = assay: Antiallodynic activity on Complete Freund's Adjuvant (CFA)-induced inflammatory pain model; conditions: intraperitoneally
Protocol: Male, Sprague-Dawley rats (210-250 g, Nara Bio, Korea) were habituated for 1 week before CFA injection and allowed free access to food and water throughout the experimentation. Room temperature and humidity were maintained at 24±2 and 50±10%, respectively.
CFA-induced inflammatory pain was induced by the procedure of Nagakura et al. (2003) and Gregory P. et al. (2010) with minor modifications. CFA (sigma, USA) was injected in the right plantar with a 100 ul volume under gaseous anesthesia with isoflurane. Sham controls were injected with 100 ul of saline and preparation of the vehicles without compound in the vehicle control group. Tactile sensitivity (Mechanical allodynia) was evaluated using von Frey monofilaments before and after treatment, and the animals were included in the study only if the withdrawal threshold value was less than 4 g. One week after surgery, CFA-infused treatment animals (n=4-6), sham-operated animals (n=12), and vehicle control animals (n=17) were tested for tactile sensitivity with von Frey monofilaments 3 trials for each animal. All Animals were placed in a stainless steel mesh chamber and habituated for 30 min in the test box. The tactile sensitivity for ipsilateral hind paw was measured using the up-and-down method (Dixon, 1980) with seven von Frey monofilaments (0.4, 1, 2, 4, 6, 8, and 15 g) to 3 trials. Tactile sensitivity test was followed by Dixon's method (Dixon, 1980). The 50% paw withdrawal threshold for each paw was calculated using the following formula: [Xth] log=[vFr] log+ky where [vFr] is the force of the last von Frey used, k=0.2249 which is the average interval (in log units) between the von Frey monofilaments, and y is a value that depends upon the pattern of withdrawal responses (Dixon, 1980).
Antiallodynic effect of compound was evaluated at the dose of 10-60 mg/kg (n=4-6), intraperitoneally administrated in a volume of 5 ul/g bw in a vehicle of 30% (v/v) PEG or 20% (v/v) Tween 80. The test was performed peak time of efficacy (0.5 or 1 hr) after compound administration.
The relative values compared to the sham (% control) were calculated and shown in Table 4, which show an antiallodynic effect of Compound 1 on CFA-induced pain model in rats.

SD rats = assay: Anti-epilepsy activity, MES test, rat; conditions: for ED50: Rattus norvegicus, po
Protocol: (§1) In the MES test (Ref., G. Villetti et al. Neuropharmacology 40 (2001) 866-878), an electrical stimulus (mice: 50 mA, 60 Hz, 0.2 sec, and rats: 150 mA, 60 Hz, 0.2 sec in the test animal) supplied by an 11A Shocker (IITC Life Science Company) was delivered through corneal electrodes. All mice or rats assigned to any electroshock at peak time were treated with each test compound sample which was dissolved in 30% PEG 400 or 20% tween 80 prepared by saline solvent applied orally before the test. […] Three doses of the test sample were administered orally to 9-18 animals (3-6 mice per dose) for evaluating the respective doses at which 50% of the animals were protected from seizure (ED50). The ED50 value (median effective dose) was calculated by Litchfield and Wicoxon log-probit method which is a dose-response relationship. Experimental animals, male ICR mice and male SD rats, were purchased from OrientBio, Samtako, or Nara Biotech, Korea, and housed in cages (4-5 mice or 3 rats per cage) for 4-5 days. The range of mice body weight was between 19 and 25 grams and range of rats body weight was between 100 and 130 grams.

Sprague-Dawley rats [2] = assay: Antiallodynic activity on Chung model (SNL, spinal nerve ligation); conditions: orally; for SNL efficacy %: 30 mg/kg; for ED50: Rattus norvegicus, po, at peak time
Description: Male Sprague-Dawley rats (100-130 g, Orient Bio, Korea) were habituated for 1 week before the experiment and allowed free access to food and water throughout the experimentation. Room temperature and humidity were maintained at 24±2 and 50±10%, respectively. The neuropathic surgery (SNL, Spinal nerve ligation) model was done as described in Kim and Chung (1992). Briefly, an animal was put under gaseous anesthesia with isoflurane. The left lumber spinal nerve L5 and L6 were isolated and tightly ligated with 6-0 silk thread. The wound muscle was closed with Catgut® chrom 3/0 thread and skin was closed with Dafilon 3/0 tread. Sham controls were prepared in the same manner with the spinal nerves exposed, but with no ligated L5 and L6 nerves. Preparation of the vehicle controls were identical to the group treated with compound, except for administration of vehicles without compound in the vehicle control group.
Tactile sensitivity (Mechanical allodynia) was evaluated using von Frey monofilaments before and after treatment, and animals were included in the study only if the withdrawal threshold value was less than 4 g. One week after surgery, SNL-operated animals, sham-operated animals and vehicle control animals were tested for tactile sensitivity with von Frey monofilaments 3 trials in each animal. All Animals were placed in a stainless steel mash chamber and habituated for 30 min in the test cage. The tactile sensitivity for the ipsilateral hind paw was measured using the up-and-down method (Dixon, 1980) with seven von Frey monofilaments (0.4, 1, 2, 4, 6, 8, and 15 g) in 3 trials. The tactile sensitivity test was followed by Dixon's method (Dixon, 1980). The 50% paw withdrawal threshold for each paw was calculated using the following formula: [Xth] log=[vFr] log+ky where [vFr] is the force of the last von Frey used, k=0.2249 which is the average interval (in log units) between the von Frey monofilaments, and y is a value that depends upon the pattern of withdrawal responses (Dixon, 1980).
All animals were fasted 18 h before the administration of the compounds. Antiallodynic effect of compounds were evaluated at the three dose, orally administrated in a volume of 5 ul/g, bw in a vehicle of 30% (v/v) PEG 400 or 20% (v/v) Tween 80. The test was performed at the peak time of efficacy after compound administration.
The relative values compared to the sham group (% control) were calculated and shown in Table 3, which show an antiallodynic effect of the test compounds on SNL model in rats.

ICR mice [3] = assay: Anti-epilepsy activity, MES test, mouse
Protocol: as §1

ICR mice [4] = assay: Anti-epilepsy activity, scPTZ test, mouse
Description: In this experiment, each test compound sample was formulated as described in Biological Experimental Example I, and administered intraperitoneally to the test animals (mice; ICR or Rat; SD); Experimental animals, male ICR mice and male SD rats, were purchased from OrientBio or Nara biotech, Korea, and housed 4-5 mice per a cage for 4-5 days. The range of mice body weight was used between 19 and 26 grams and range of rats body weight was used between 100 and 130 grams. After Peak time (0.5, 1, 2 and 4 hr) from the administration, PTZ (Pentylenetetrazol) was administered subcutaneously in the concentration capable of inducing 97% intermittent convulsions (mice: 76-110 mg/kg·bw, 10 μl/g, or rats: 79-110 mg/kg·bw, 2 μl/g). If clonic seizure was not observed for at least 30 minutes in the PTZ administered animal, it can be considered that the test compound has anti-epilepsy activity. The median effective dose (ED50) is determined using 6 animals per a concentration (total three different concen-trations), and calculated by Litchfield and Wicoxon log-probit method which is a dose-response relationship.

[5] = Rattus norvegicus, ip, read-out: CFA-induced pain model efficacy %
[6] = po, read-out: MES test (po) efficacy %

COCO[C@H](c1ccccc1F)[C@@H](C)OS(N)(=O)=O [Example 73, (1R, 2R)-1-(2-fluorophenyl)-1-(methoxymethoxy)propan-2-yl sulfamate]
response vs control in vivo at 50 mg/kg (Sprague-Dawley rats [1]; [5]): 38.5% | CFA-induced pain model Peak Time (Sprague-Dawley rats [1]): 0.5 h | MES test (po) Peak time (SD rats): (4 h) | ED50 (SD rats): 34.8 mg/kg | SNL Peak Time (Sprague-Dawley rats [2]): 1 h | SNL efficacy % (Sprague-Dawley rats [2]): 30(31.3%) | MES test (po) Peak time (ICR mice [3]): 1 h | responders at 60 mg/kg (ICR mice [3]; [6]): 33.3%

CC[C@@H](OS(N)(=O)=O)[C@H](O)c1ccccc1Cl [Example 12, (1R, 2R)-1-(2-chlorophenyl)-1-hydroxybutan-2-yl sulfamate]
response vs control in vivo at 50 mg/kg (Sprague-Dawley rats [1]; [5]): 21.9% | CFA-induced pain model Peak Time (Sprague-Dawley rats [1]): 0.5 h | MES test (po) Peak time (SD rats): 1 h | MES test (po) efficacy % (SD rats; 100 mg/kg): 100%

C[C@@H](OS(N)(=O)=O)[C@H](O)c1ccccc1F [Example 18, (1R, 2R)-1-(2-fluorophenyl)-1-hydroxypropan-2-yl sulfamate]
response vs control in vivo at 50 mg/kg (Sprague-Dawley rats [1]; [5]): 46.6% | CFA-induced pain model Peak Time (Sprague-Dawley rats [1]): 0.5 h | MES test (po) Peak time (SD rats): (2 h) | ED50 (SD rats): 14.2 mg/kg | SNL Peak Time (Sprague-Dawley rats [2]): 0.5 h | SNL efficacy % (Sprague-Dawley rats [2]): 30(48.2%) | MES test (po) Peak time (ICR mice [3]): 1 h | ED50 (ICR mice [3]; po): 62 mg/kg

CC[C@@H](OS(N)(=O)=O)[C@H](OCOC)c1ccccc1Cl [Example 71, (1R, 2R)-1-(2-chlorophenyl)-1-(methoxymethoxy)butan-2-yl sulfamate]
response vs control in vivo at 50 mg/kg (Sprague-Dawley rats [1]; [5]): 41.9% | CFA-induced pain model Peak Time (Sprague-Dawley rats [1]): 0.5 h | SNL Peak Time (Sprague-Dawley rats [2]): 0.5 h | SNL efficacy % (Sprague-Dawley rats [2]): 30(31.9%)

CC(C)NS(=O)(=O)O[C@@H](C)[C@@H](O)c1ccccc1Cl [Example 37, (1S, 2S)-1-(2-chlorophenyl)-1-hydroxypropan-2-yl isopropylsulfamate]
MES test (po) Peak time (SD rats): 2 h | MES test (po) efficacy % (SD rats; 10 mg/kg): 16.6%

C[C@H](OS(N)(=O)=O)[C@@H](O)c1ccccc1F [Example 17, (1S, 2S)-1-(2-fluorophenyl)-1-hydroxypropan-2-yl sulfamate]
ED50 (Sprague-Dawley rats [1]; Rattus norvegicus, ip, at peak time): 48.7 mg/kg | CFA-induced pain model Peak Time (Sprague-Dawley rats [1]): 0.5 h | ED50 (Sprague-Dawley rats [2]): 46.9 mg/kg | SNL Peak Time (Sprague-Dawley rats [2]): 1 h

C[C@H](OS(N)(=O)=O)[C@@H](O)c1ccccc1I [Example 19, (1S, 2S)-1-(2-iodophenyl)-1-hydroxypropan-2-yl sulfamate]
response vs control in vivo at 30 mg/kg (Sprague-Dawley rats [1]; Rattus norvegicus, ip, 30 mg/kg, read-out: CFA-induced pain model efficacy %): 24.3% | CFA-induced pain model Peak Time (Sprague-Dawley rats [1]): 1 h | ED50 (Sprague-Dawley rats [2]): 44.6 mg/kg | SNL Peak Time (Sprague-Dawley rats [2]): 1 h | MES test (po) Peak time (ICR mice [3]): 1 h | responders at 30 mg/kg (ICR mice [3]; po, 30 mg/kg, read-out: MES test (po) efficacy %): 66.6%

COCO[C@@H](c1c(Cl)cccc1Cl)[C@H](C)OS(N)(=O)=O [Example 57, (1S, 2S)-1-(2,6-dichlorophenyl)-1-(methoxymethoxy)propan-2-yl sulfamate]
SNL Peak Time (Sprague-Dawley rats [2]): 1 h | SNL efficacy % (Sprague-Dawley rats [2]): 30(26.3%)

C[C@@H](OS(N)(=O)=O)[C@H](O)c1ccccc1I [Example 20, (1R, 2R)-1-(2-iodophenyl)-1-hydroxypropan-2-yl sulfamate]
response vs control in vivo at 50 mg/kg (Sprague-Dawley rats [1]; [5]): 28.7% | CFA-induced pain model Peak Time (Sprague-Dawley rats [1]): 0.5 h | MES test (po) Peak time (SD rats): (2 h) | ED50 (SD rats): 20.1 mg/kg | SNL Peak Time (Sprague-Dawley rats [2]): 1 h | SNL efficacy % (Sprague-Dawley rats [2]): 30(58.7%) | MES test (po) Peak time (ICR mice [3]): 1 h | responders at 60 mg/kg (ICR mice [3]; [6]): 16.6%

C[C@H](OS(N)(=O)=O)[C@@H](O)c1ccccc1Cl [Example 1, (1S, 2S)-1-(2-chlorophenyl)-1-hydroxypropan-2-yl sulfamate]
scPTZ test (ip) Peak time (ICR mice [4]): 0.5 h | ED50 (ICR mice [4]; ip): 76.6 mg/kg | MES test (po) Peak time (ICR mice [3]): 2 h | ED50 (ICR mice [3]; po): 46.9 mg/kg

CC[C@H](OS(N)(=O)=O)[C@@H](O)c1ccccc1Cl [Example 11, (1S, 2S)-1-(2-chlorophenyl)-1-hydroxybutan-2-yl sulfamate]
MES test (po) Peak time (SD rats): 2 h | MES test (po) efficacy % (SD rats; 24 mg/kg): 33.3% | MES test (po) Peak time (ICR mice [3]): 2 h | responders at 50 mg/kg (ICR mice [3]; po, 50 mg/kg, read-out: MES test (po) efficacy %): 25%

C[C@@H](OS(N)(=O)=O)[C@H](O)c1ccc(Cl)cc1Cl [Example 4, (1R, 2R)-1-(2,4-dichlorophenyl)-1-hydroxypropan-2-yl sulfamate]
MES test (po) Peak time (SD rats): 4 h | MES test (po) efficacy % (SD rats; 10 mg/kg): 33% | scPTZ test (ip) Peak time (ICR mice [4]): 2 h | scPTZ test (ip) efficacy % (ICR mice [4]; 100 mg/kg): 100(100%)

COCO[C@H](c1ccccc1I)[C@@H](C)OS(N)(=O)=O [Example 75, (1R, 2R) 1-(2-iodophenyl)-1-(methoxymethoxy)propan-2-yl sulfamate]
response vs control in vivo at 50 mg/kg (Sprague-Dawley rats [1]; [5]): 28.1% | CFA-induced pain model Peak Time (Sprague-Dawley rats [1]): 0.5 h | MES test (po) Peak time (SD rats): (2 h) | ED50 (SD rats): 4.2 mg/kg | SNL Peak Time (Sprague-Dawley rats [2]): 1 h | SNL efficacy % (Sprague-Dawley rats [2]): 30(64.9%) | MES test (po) Peak time (ICR mice [3]): 1 h | responders at 60 mg/kg (ICR mice [3]; [6]): 33.3%

C[C@H](OS(N)(=O)=O)[C@@H](O)c1ccc(Cl)cc1Cl [Example 3, (1S, 2S)-1-(2,4-dichlorophenyl)-1-hydroxypropan-2-yl sulfamate]
MES test (po) Peak time (SD rats): 4 h | MES test (po) efficacy % (SD rats; 20 mg/kg): 16.6%
